Here are results for two compounds from US20260226057A1, “TRICYCLIC AZEPINONE DERIVATIVES AS SYSTEM XC INHIBITORS” (UCB BIOPHARMA SRL, priority 2023, published 2026).

A value given as a limit tells only on which side of the number the result lay.

For assay [1], the target named is T1, System Xc^− cystine/glutamate antiporter (Homo sapiens, UniProt Q9UPY5).
T1 sequence (Q9UPY5 1-501): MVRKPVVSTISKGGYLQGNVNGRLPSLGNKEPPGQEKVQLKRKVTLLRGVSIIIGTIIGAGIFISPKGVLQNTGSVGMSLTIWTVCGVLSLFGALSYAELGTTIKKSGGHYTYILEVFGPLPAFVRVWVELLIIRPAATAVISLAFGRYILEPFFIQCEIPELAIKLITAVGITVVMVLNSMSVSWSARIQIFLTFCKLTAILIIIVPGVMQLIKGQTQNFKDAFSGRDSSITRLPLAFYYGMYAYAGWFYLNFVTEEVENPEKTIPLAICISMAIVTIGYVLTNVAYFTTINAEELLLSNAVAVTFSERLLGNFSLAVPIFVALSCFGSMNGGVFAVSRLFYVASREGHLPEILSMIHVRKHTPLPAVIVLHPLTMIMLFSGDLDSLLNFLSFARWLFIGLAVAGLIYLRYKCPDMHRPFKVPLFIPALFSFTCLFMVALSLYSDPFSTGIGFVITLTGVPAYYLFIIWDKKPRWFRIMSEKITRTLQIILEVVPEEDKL
T1 sequence (P08195 1-529 partner): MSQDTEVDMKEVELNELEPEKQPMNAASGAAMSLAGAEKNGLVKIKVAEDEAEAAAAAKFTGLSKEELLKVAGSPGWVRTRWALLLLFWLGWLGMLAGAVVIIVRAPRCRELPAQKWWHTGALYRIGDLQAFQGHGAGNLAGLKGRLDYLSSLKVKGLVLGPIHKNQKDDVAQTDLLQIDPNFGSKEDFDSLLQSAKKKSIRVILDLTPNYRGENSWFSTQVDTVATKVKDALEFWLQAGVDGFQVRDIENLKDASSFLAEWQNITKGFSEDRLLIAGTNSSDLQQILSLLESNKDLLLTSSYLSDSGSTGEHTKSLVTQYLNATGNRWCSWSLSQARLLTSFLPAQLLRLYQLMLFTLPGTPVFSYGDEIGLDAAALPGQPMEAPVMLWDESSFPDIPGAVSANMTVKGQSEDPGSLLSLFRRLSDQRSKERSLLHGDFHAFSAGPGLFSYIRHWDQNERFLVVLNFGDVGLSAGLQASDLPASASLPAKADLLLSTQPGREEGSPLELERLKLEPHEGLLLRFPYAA
Briefly: [^14C]L-Cystine uptake assay. The note with it: H4 cells, 15 min preincubation, 1 hour at 37° C., sodium-free HEPES buffer; read-out: [^14C] L-Cystine uptake assay (range of pIC50) (converted). Type of assay: cell-based. The text has this:
(§1) By measuring respectively, the concentration of glutamate released outside the cell and the L-cystine uptaken in the cell, with increasing concentrations of compounds of formula (I) according to the present invention, the efficacy of said compounds to inhibit the System Xc^− function can be evaluated.
(§2) The efficacy of the compounds to inhibit system Xc^− is represented by measuring the IC50 which corresponds to the concentration of compound necessary to inhibit 50% of the signals from the two control groups; DMSO 1% and Erastin 50 μM in the respective assays. pIC50 values correspond to −log of the IC50 in Molar.
In this assay, the medium is devoid of sodium to prevent the transport of glutamate by sodium-dependent excitatory amino acid transporters (EAATs). H4 cells were plated on a 96-well CytoStar-T scintillating microplate (PerkinElmer) at 5×10^4 cells/well in the medium described above. After 1 day, cells were washed one time with the sodium-free HEPES buffer and preincubated with test compounds of Formula (I) (1% final DMSO) for 15 min. Uptake was initiated by adding 0.5 μM L-[1,2, 1′,2′-^14C] Cystine (0.02 mCi/mL, PerkinElmer, Waltham, US) and 4.5 μM L-Cystine (Sigma-Aldrich). After 1 hour at 37° C., plates were counted in a MicroBeta^2 microplate counter (PerkinElmer).

The target in assay [2] is T1, System Xc^− cystine/glutamate antiporter. Nature of the assay: Cystine-induced glutamate release assay. The note with it: H4 cells, 50 μM L-Cystine, 2 hours, sodium-free HEPES buffer; read-out: Cystine-induced glutamate release assay (range of pIC50) (converted). The arrangement: endogenous in cells; host or cells: H4 cells. Type of assay: cell-based.
Source text: as §1, §2
Measurement of cystine-induced glutamate release indicates levels of glutamate (outside of the cell) that are dependent on system Xc^− antiporter function. Upon the addition of L-Cystine to H4 cells, intracellular glutamate is counter-transported and exported in the supernatant.
In this assay, the medium is devoid of sodium to prevent the transport of glutamate by sodium-dependent excitatory amino acid transporters (EAATs). H4 cells were plated on 384-well culture plate at 1×10^4 cells/well in Dulbecco's Modified Eagle Medium (DMEM) with L-glutamine, penicillin/streptomycin and 10% fetal bovine serum (all from ThermoFisher Scientific) and incubated in a humidified CO2 incubator at 37° C. After 2 days, cells were washed 4 times with prewarmed sodium-free HEPES buffer (contents in mM: HEPES 10, KCl 5.4, CaCl2 2.5, MgCl2 1, KH2PO4 0.4, D-Glucose 5, Choline chloride 140), pH 7.4. Glutamate release was induced by addition of 50 μM of L-Cystine (Sigma-Aldrich), together with a test compound of Formula (I) at 1% final DMSO concentration. After 2 hours of incubation in the culture incubator, supernatants were transferred to a low-binding polypropylene 384-well plate to determine L-glutamate concentration using Amplex™ Red Glutamic Acid Assay Kit (ThermoFisher Scientific). Briefly, 10 μL of Amplex™ Red working solution was added to 10 μL of the supernatant, then the mixture was incubated for 30 min at 37° C. Fluorescence intensity was measured by EnVision microplate reader (PerkinElmer).

`CC(=O)c1ccc(NC(=O)CN2C(=O)C(C)c3cnc(F)cc3-c3c2cc(C)nc3F)cc1` (stereo not shown) [#34]: the IC50 in assay [1] and in assay [2] was 39.8 to 100 nM throughout.

`CC(=O)c1ccc(NC(=O)CN2C(=O)C(C)c3ncccc3-c3c(F)cc(N4CC(F)C4)cc32)cc1` (stereo not shown) [#35]: the IC50 was below 15.8 nM in assay [1] and 15.8 to 39.8 nM in assay [2].
